# Experimental data: patent publication US20260240844A1, “INHIBITORS OF CHD1L AND USES THEREOF” (The Regents of the University of Colorado, a body corporate, priority 2023, published 2026)
# Read-outs that look alike come from different tables or passages of the source.
# Experiments:
# AIF in SUM149PT cells = test: AIF immunofluorescence in SUM149PT (SUM149) cells; type: cell-based
# From the text: CHD1Li-mediated PAR translocation to the cytoplasm activates PARthanatos as a cell death mechanism. Parthanatos is a form a programmed cell death different from apoptosis and known to be mediated by PARP1 overactivation. The unique events occurring during parthanatos are: PARP1 rapid activation, accumulation of PAR and nuclear translocation of apoptosis inducing factor (AIF). Without being bound by any particular theory, accumulation of PAR in the cytoplasm caused by CHD1Li can also mediate parthanatos. To better understand the link between PAR translocation to the cytoplasm and cell death, immunofluorescence to measure the activation of caspase-3 and the subcellular localization of AIF after treatment with SOC drugs and Compound 6 in SUM49PT cells was used. […] Without being bound by any particular theory, this might be caused by the mitochondrial outer membrane permeabilization, which triggers release of mitochondrial proteins like AIF or cytochrome c, activating caspase-3 by its cleavage and leading to apoptosis. […] Moreover, when combining CHD1L inhibition with SOC drugs, the cell death mechanism shifts from apoptosis to parthanatos, evidenced by a significant increase in AIF nuclear translocation and decrease in activation of caspase-3 (FIG. 25D-E).
# (§1) The ability of Compounds 12, 15 and 16 to localize AIF was tested in SUM149 (breast cancer) and MDA-MB-231 (TNBC) cell lines. A comparison of the relative distribution of AIF in nuclei (a) versus cytoplasm (b) in SUM149 cells and nuclei (c) versus cytoplasm (d) in MDA-MB-231 cells in the presence of 4 μM Compounds 12, 15 and 16 are shown in FIG. 28. […] Similarly, AIF concentration in the cytoplasm of MDA-MB-231 cells decreased by about 0.5 after administration with Compound 15. After treatment with Compound 16, the relative concentration of AIF in the nuclei of SUM149 cells increased by about 0.5-fold, and the concentration of AIF in the cytoplasm decreased by about 0.4-fold. In MDA-MB-231 cells, the relative concentration of AIF in the cytoplasm decreased by about 0.5-fold, while the concentration of AIF increased in the nuclei by about 0.1-fold.
# AIF in MDA-MB-231 cells = test: AIF localization in MDA-MB-231 cells; type: cell-based; conditions: 4 μM
# Protocol: as §1
# MiaPaca2 cells = test: MiaPaca2 cell viability, combination with chemotherapy; type: cell-based; conditions: MiaPaca2 cells
# From the text: The cell viability assays and Bliss synergy analyses are as described above in Examples 1-9 and 11-12.
# HCT116 Parental cells = test: HCT116 Parental cell viability, combination with chemotherapy; type: cell-based; conditions: HCT116 cells
# SW620 Parental cells = test: SW620 Parental cell viability, combination with chemotherapy; type: cell-based; conditions: SW620 cells
# PAR in SUM149PT cells = test: PAR immunofluorescence (nuclear / cytoplasmic PAR); type: cell-based
# From the text: Inhibition of CHD1L promotes PAR translocation to the cytoplasm. The main role of PARP1 during the DDR is to detect and signal the recruitment of repair machinery to the sites of DNA damage. For that, PARP1/2 catalyze PARylation, which is a pivotal […] protein modification, consisting of the addition of ADP-ribose units to the carboxyl group of acidic residues such as glutamate or aspartate on target proteins by using NAD^+ as substrate. CHD1L is one of the proteins that requires binding to these PAR chains for its activation and subsequent chromatin remodeling. Using immunofluorescence of PAR, the effect of PARPi and CHD1Li on PARylation in SUM149PT cells was investigated. […] In addition, the effect of doxorubicin on nuclear PARylation was reverted by CHD1L inhibition, causing an increase of PAR in the cytoplasm (FIG. 25A-C).
# SUM149PT tumor organoids = test: Tumor organoid cytotoxicity (CellTiter Glo 3D), SUM149PT; type: cell-based; conditions: for IC50: Homo sapiens, read-out: IC50 docetaxel; for IC50 / Mean Synergy Score: SUM149PT; for calculated mean synergy scores: MDA-MB-231 and SUM149PT
# Protocol: Tumor organoid culture—Cell lines were cultured as tumor organoids by seeding 2,000 to 5,000 cells/well into uncoated 96 well U-bottom Ultra Low Attachment Microplates (Corning) using their corresponding medium.
# Luminescence was recorded using the EnVision plate reader (PerkinElmer) and values normalized to the controls using GraphPad Prism.
# [1] = tested on: SUM149 and MDA-MB-231 cells; test: DDR biomarkers in breast cancer cells; type: cell-based; conditions: 4 μM
# From the text: (§2) Etoposide was used as a control to show upregulation of DDR pathway biomarkers.
# Colo679 cells = test: DDR biomarkers (pATM, RAD51, 53BP1, γ-H2AX) in Colo679 cells; type: cell-based; conditions: 4 μM
# From the text: as §2
# Colo678 cells = test: Colo678 cell viability, combination with chemotherapy; type: cell-based; conditions: Colo678 cells
# SW948 tumor organoids = test: cells; conditions: SW948 tumor organoids; combined with Compound 6
# Protocol: ATM is an important protein involved in the initial stages of the DNA damage response. […] ATM mutations are important markers being developed to identify metastatic CRC (mCRC) patients that may be sensitive to DNA damaging chemotherapy.
# Synergy was assessed using the Bliss model.
# [2] = tested on: MDA-MB-231 tumor organoids; test: Tumor organoid cytotoxicity, MDA-MB-231; type: cell-based; conditions: MDA-MB-231
# Protocol: Tumor organoid culture—Cell lines were cultured as tumor organoids by seeding 2,000 to 5,000 cells/well into uncoated 96 well U-bottom Ultra Low Attachment Microplates (Corning) using their corresponding medium. Cell aggregation was then promoted by centrifugation of the plates for 15 min at 1,000 rpm followed by the addition of Matrigel (Corning) to a 2-5% final concentration. Tumor organoids were maintained under standard cell culture conditions for 72 h prior to drug treatment.
# Organoids were then transferred to a white solid bottom 96 well plate and incubated with an equal volume of CellTiter Glo 3D reagent (Promega) for 45 min on a shaker at 400 rpm. Luminescence was recorded using the EnVision plate reader (PerkinElmer) and values normalized to the controls using GraphPad Prism.
# CHD1L = biological target: T1, CHD1L (Homo sapiens, UniProt Q86WJ1); test: CHD1L trapping (in situ subcellular fractionation, immunofluorescence); type: cell-based; conditions: single agent; SUM149PT + 0.01% MMS 4 h; BC and CRC cells
# T1 sequence (Q86WJ1 1-897): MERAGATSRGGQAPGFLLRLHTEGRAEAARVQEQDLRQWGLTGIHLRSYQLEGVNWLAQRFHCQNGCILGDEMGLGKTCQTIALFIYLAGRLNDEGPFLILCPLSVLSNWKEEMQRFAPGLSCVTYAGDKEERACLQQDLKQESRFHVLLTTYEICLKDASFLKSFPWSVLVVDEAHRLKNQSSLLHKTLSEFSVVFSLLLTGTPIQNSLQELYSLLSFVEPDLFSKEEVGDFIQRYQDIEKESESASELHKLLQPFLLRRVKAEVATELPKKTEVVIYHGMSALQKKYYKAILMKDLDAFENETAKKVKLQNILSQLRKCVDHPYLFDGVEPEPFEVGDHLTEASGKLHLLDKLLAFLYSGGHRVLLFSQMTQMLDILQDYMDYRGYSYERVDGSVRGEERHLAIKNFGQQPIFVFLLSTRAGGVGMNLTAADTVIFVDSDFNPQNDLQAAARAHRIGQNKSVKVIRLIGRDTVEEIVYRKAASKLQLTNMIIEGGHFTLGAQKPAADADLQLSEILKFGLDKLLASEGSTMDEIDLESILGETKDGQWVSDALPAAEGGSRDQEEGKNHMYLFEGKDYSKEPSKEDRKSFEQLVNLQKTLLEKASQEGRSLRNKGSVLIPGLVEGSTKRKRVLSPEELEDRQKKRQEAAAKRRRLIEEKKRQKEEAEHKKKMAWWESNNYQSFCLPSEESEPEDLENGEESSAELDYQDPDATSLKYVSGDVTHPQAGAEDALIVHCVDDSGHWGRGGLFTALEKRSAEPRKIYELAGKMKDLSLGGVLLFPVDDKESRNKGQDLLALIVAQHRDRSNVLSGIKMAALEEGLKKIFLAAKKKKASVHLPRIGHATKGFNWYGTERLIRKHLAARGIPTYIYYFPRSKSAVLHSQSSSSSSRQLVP
# From the text: Other studies on the role of CHD1L used cell lines with knockdown or knockouts of the gene encoding for CHD1L and have never been able to study the result of its enzymatic inhibition.
# [3] = SUM149PT tumor organoids, combined with Compound 6
# [4] = Compound 13 combined with Olaparib
# [5] = Compound 13 combined with doxorubicin
# [6] = SUM149PT cells, single agent, 18 h
compound,measurement,setting,value
"Cc1cc(Nc2ccc(NC(=O)Cc3ccc(Br)s3)cc2)nc(N2CCCC2)n1 [Compound 15, 2-(5-bromothiophen-2-yl)-N-(4-((6-methyl-2-(pyrrolidin-1-yl)pyrimidin-4-yl)amino)phenyl)acetamide]",decrease in AIF in the cytoplasm,"AIF in SUM149PT cells; SUM149 cells, 4 μM",about 0.5 fold
same,increase in AIF in the nucleus,"AIF in SUM149PT cells; SUM149 cells, 4 μM",about 0.5 fold
same,decrease in AIF in the cytoplasm,AIF in MDA-MB-231 cells,about 0.5 fold
"Cc1cc(Nc2ccc(NC(=O)Cc3c[nH]c4cc(Cl)ccc34)cc2)nc(N2CCCC2)n1 [Compound 7, 2-(6-chloro-1H-indol-3-yl)-N-(4-((6-methyl-2-(pyrrolidin-1-yl)pyrimidin-4-yl)amino)phenyl)acetamide]",calculated mean synergy score,MiaPaca2 cells; combined with 5-FU,about 25
same,calculated mean synergy score,MiaPaca2 cells; combined with SN-38,about 24.5
"Cc1cc(Nc2ccc(NC(=O)/C=C/c3cc(Br)cs3)cc2)nc(N2CCCC2)n1 [Compound 11, (E)-3-(4-bromothiophen-2-yl)-N-(4-((6-methyl-2-(pyrrolidin-1-yl)pyrimidin-4-yl)amino)phenyl)acrylamide]",calculated mean synergy score,"HCT116 Parental cells; 72 h, combined with SN-38",about 14
same,calculated mean synergy score,HCT116 Parental cells; combined with 5-FU,about 8
same,calculated mean synergy score,"SW620 Parental cells; 72 h, combined with SN-38",about 24
same,calculated mean synergy score,SW620 Parental cells; combined with 5-FU,about 43
PDD00017273,nuclear PAR under CHD1L inhibition,PAR in SUM149PT cells; cells pre-treated 2 hours with 1 μM PARG inhibitor before CHD1Li,kept the levels of nuclear PAR similar to control cells
CC(=O)O[C@@]12CO[C@@H]1C[C@H](O)[C@@]1(C)C(=O)[C@H](O)C3=C(C)[C@@H](OC(=O)[C@H](O)[C@@H](NC(=O)OC(C)(C)C)c4ccccc4)C[C@@](O)([C@@H](OC(=O)c4ccccc4)[C@H]21)C3(C)C [docetaxel],IC50,SUM149PT tumor organoids; [3],0.5 µM
same,IC50,"SUM149PT tumor organoids; SUM149PT tumor organoids, docetaxel alone",55 µM
same,increase in potency of the chemotherapy,"SUM149PT tumor organoids; SUM149PT BRCA1 mutant tumor organoids, + 1.9 μM Compound 6",110 fold
"Cc1cc(Nc2ccc(NC(=O)c3cnc(Br)s3)cc2)nc(N2CCCC2)n1 [Compound 14, 2-bromo-N-(4-((6-methyl-2-(pyrrolidin-1-yl)pyrimidin-4-yl)amino)phenyl)thiazole-5-carboxamide]",amounts of γ-H2AX and 53BP1,[1],overall decreases in the amounts of γ-H2AX and 53BP1
same,amount of 53BP1,Colo679 cells,decrease the amount of 53BP1
same,amount of pATM,Colo679 cells,increased the amount of pATM
same,γ-H2AX concentrations,Colo679 cells,decreased
same,calculated mean synergy score,"Colo678 cells; 72 h, combined with SN-38",about 57
same,calculated mean synergy score,Colo678 cells; combined with 5-FU,about 26
"Cc1cc(Nc2ccc(NC(=O)Cc3cc(Cl)nc4ccccc34)cc2)nc(N2CCCC2)n1 [Compound 8, 2-(2-chloroquinolin-4-yl)-N-(4-((6-methyl-2-(pyrrolidin-1-yl)pyrimidin-4-yl)amino)phenyl)acetamide]",calculated mean synergy score,MiaPaca2 cells; combined with 5-FU,about 29.5
same,calculated mean synergy score,MiaPaca2 cells; combined with SN-38,about 26
O=C(O)C(=O)O.[NH-][C@@H]1CCCC[C@H]1[NH-].[Pt+2] [oxaliplatin],increase in potency of the chemotherapy,SW948 tumor organoids,20 fold
"Cc1cc(Nc2ccc(NC(=O)c3cc(Br)cs3)cc2)nc(N2CCCC2)n1 [Compound 13, 4-bromo-N-(4-((6-methyl-2-(pyrrolidin-1-yl)pyrimidin-4-yl)amino)phenyl)thiophene-2-carboxamide]",calculated mean synergy scores,SUM149PT tumor organoids; all combinations with 5-FU or doxorubicin,at least 20
same,calculated mean synergy scores,SUM149PT tumor organoids; all combinations with Olaparib,at least 40
same,Mean Synergy Score,SUM149PT tumor organoids; Compound 13 combined with 5-FU,23.62
same,Mean Synergy Score,SUM149PT tumor organoids; [4],69.46
same,Mean Synergy Score,SUM149PT tumor organoids; [5],42.74
same,Mean Synergy Score,[2]; Compound 13 combined with 5-FU,23.62
same,Mean Synergy Score,[2]; [4],40.44
same,Mean Synergy Score,[2]; [5],23.62
same,calculated mean synergy score,"Colo678 cells; 72 h, combined with SN-38",about 41
same,calculated mean synergy score,Colo678 cells; combined with 5-FU,about 12
same,calculated mean synergy score,MiaPaca2 cells; combined with 5-FU,about 57
same,calculated mean synergy score,MiaPaca2 cells; combined with SN-38,about 18
CCc1cc2ncc(CN3CCN(c4ccc(C(=O)NC)nc4)CC3)cc2[nH]c1=O [AZD5305],improvement of IC50 potency,SUM149PT tumor organoids; [3],2.7 fold
same,nuclear PAR (PARylation),"PAR in SUM149PT cells; SUM149PT cells, single agent, 4 h",inhibition of nuclear PARylation
same,cytoplasmic AIF,AIF in SUM149PT cells; [6],increase in the AIF intensity in the cytoplasm
same,nuclear AIF,AIF in SUM149PT cells; [6],no translocation of this protein to the nucleus
same,CHD1L trapping onto chromatin/nucleosomes,CHD1L,did not show CHD1L trapping
